In PubChem BioAssay AID1918930 (Molecular Pharmacology Branch, DTP, NCI, 2023):

System: 233499-124-R-J3-PDC complex spheroid viability, % test/control
Experiment: Anticancer human tumor 233499-124-R-J3-PDC patient-derived colon adenocarcinoma cell line growth inhibition
Settings: for IC50: curve of first compound; for viability, T/C: stronger effect = lower value
Procedure, shortened: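 Multicellular complex spheroids of tumor cells with human endothelial cells (HUVEC) and mesenchymal stem cells; the LSD1 inhibitor iadademstat was combined with standard-of-care or investigational agents. Top concentration at or near clinical Cmax, half-log dilutions; final DMSO ≤0.25%.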

[1] = second compound 0.1 µM, first compound 0.0316 µM
[2] = second compound 0.1 µM, first compound 0.1 µM
[3] = second compound 0.1 µM, first compound 0.316 µM
[4] = second compound 0.1 µM, first compound 1 µM
[5] = second compound 0.1 µM, first compound 3.16 µM
[6] = second compound 0.1 µM, first compound 10 µM
[7] = second compound 0.316 µM, first compound 0.0316 µM
[8] = second compound 0.316 µM, first compound 0.1 µM
[9] = second compound 0.316 µM, first compound 0.316 µM
[10] = second compound 0.316 µM, first compound 1 µM
[11] = second compound 0.316 µM, first compound 3.16 µM
[12] = second compound 0.316 µM, first compound 10 µM
[13] = second compound 1 µM, first compound 0.0316 µM
[14] = second compound 1 µM, first compound 0.1 µM
[15] = second compound 1 µM, first compound 0.316 µM
[16] = second compound 1 µM, first compound 1 µM
[17] = second compound 1 µM, first compound 3.16 µM
[18] = second compound 1 µM, first compound 10 µM
[19] = second compound 3.16 µM, first compound 0.0316 µM
[20] = second compound 3.16 µM, first compound 0.1 µM
[21] = second compound 3.16 µM, first compound 0.316 µM
[22] = second compound 3.16 µM, first compound 1 µM
[23] = second compound 3.16 µM, first compound 3.16 µM
[24] = second compound 3.16 µM, first compound 10 µM
[25] = second compound 10 µM, first compound 0.0316 µM
[26] = second compound 10 µM, first compound 0.1 µM
[27] = second compound 10 µM, first compound 0.316 µM
[28] = second compound 10 µM, first compound 1 µM
[29] = second compound 10 µM, first compound 3.16 µM
[30] = second compound 10 µM, first compound 10 µM
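Further: spheroids exposed to agents for one week before readout.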

In the case of `CC(C)c1c(-c2ccccc2)nc2c(C#N)c[nH]n2c1=O` + NC1CC1c1ccc(-c2cccc(O)c2)cc1, the IC50 (second compound 0.1 µM) is reported as > 10 µM, the IC50 (second compound 0.316 µM) is reported as > 10 µM and the IC50 (second compound 1 µM) is reported as > 10 µM. For the same compound, the IC50 (second compound 3.16 µM) was > 10 µM, the IC50 (second compound 10 µM) was > 10 µM and the viability, T/C [1] was 108%. For the same compound, the viability, T/C [2] was 117%, the viability, T/C [3] was 110% and the viability, T/C [4] was 100%. The viability, T/C [5] was 108%, the viability, T/C [6] was 104% and the viability, T/C [7] was 100%. For the same compound, the viability, T/C [8] was 110%, the viability, T/C [9] was 109% and the viability, T/C [10] was 118%. It also gave a viability, T/C [11] of 117%, a viability, T/C [12] of 110% and a viability, T/C [13] of 86.8%. For the same compound, the viability, T/C [14] was 93.6%, the viability, T/C [15] was 95.1% and the viability, T/C [16] was 92.8%. For the same compound, the viability, T/C [17] was 105%, the viability, T/C [18] was 116% and the viability, T/C [19] was 87.6%. It also gave a viability, T/C [20] of 93.5%, a viability, T/C [21] of 97.3% and a viability, T/C [22] of 98.9%. It also gave a viability, T/C [23] of 114%, a viability, T/C [24] of 109% and a viability, T/C [25] of 76.1%. It also gave a viability, T/C [26] of 78%, a viability, T/C [27] of 93.3% and a viability, T/C [28] of 101%. It also gave a viability, T/C [29] of 109% and a viability, T/C [30] of 114%.
`CC1COCCN1c1cc(-c2ccnn2C)c2ccnc(-c3ccn[nH]3)c2n1` (stereo not given) + NC1CC1c1ccc(-c2cccc(O)c2)cc1 was tested, and the IC50 (second compound 0.1 µM) was > 1 µM, the IC50 (second compound 0.316 µM) was > 1 µM and the IC50 (second compound 1 µM) was > 1 µM. The IC50 (second compound 3.16 µM) was < 0.00316 µM, the IC50 (second compound 10 µM) was < 0.00316 µM and the viability, T/C (second compound 0.1 µM, first compound 0.00316 µM) was 60.7%. It also gave a viability, T/C (second compound 0.1 µM, first compound 0.01 µM) of 63.2%, a viability, T/C [1] of 36.7% and a viability, T/C [2] of 39.4%. For the same compound, the viability, T/C [3] was 56.4%, the viability, T/C [4] was 102% and the viability, T/C (second compound 0.316 µM, first compound 0.00316 µM) was 62.7%. For the same compound, the viability, T/C (second compound 0.316 µM, first compound 0.01 µM) was 75.6%, the viability, T/C [7] was 38.9% and the viability, T/C [8] was 36.6%. For the same compound, the viability, T/C [9] was 43.7%, the viability, T/C [10] was 87.3% and the viability, T/C (second compound 1 µM, first compound 0.00316 µM) was 64.1%. It also gave a viability, T/C (second compound 1 µM, first compound 0.01 µM) of 59.6%, a viability, T/C [13] of 37.4% and a viability, T/C [14] of 40.1%. The viability, T/C [15] was 39.1%, the viability, T/C [16] was 81.8% and the viability, T/C (second compound 3.16 µM, first compound 0.00316 µM) was 60.5%. It also gave a viability, T/C (second compound 3.16 µM, first compound 0.01 µM) of 50.9%, a viability, T/C [19] of 39.5% and a viability, T/C [20] of 42.7%. The viability, T/C [21] was 44.2%, the viability, T/C [22] was 82.1% and the viability, T/C (second compound 10 µM, first compound 0.00316 µM) was 53.4%. The viability, T/C (second compound 10 µM, first compound 0.01 µM) was 42.1%, the viability, T/C [25] was 32.7% and the viability, T/C [26] was 36.2%. The viability, T/C [27] was 32.9% and the viability, T/C [28] was 76.5%.
In the case of `CC1COCCN1c1cc(C2(S(C)(=N)=O)CC2)nc(-c2ccnc3[nH]ccc23)n1` (stereo not given) + NC1CC1c1ccc(-c2cccc(O)c2)cc1, the IC50 (second compound 0.1 µM) is reported as > 10 µM, the IC50 (second compound 0.316 µM) is reported as > 10 µM and the IC50 (second compound 1 µM) is reported as > 10 µM. The IC50 (second compound 3.16 µM) was 4.43 µM, the IC50 (second compound 10 µM) was 3.1 µM and the viability, T/C [1] was 110%. The viability, T/C [2] was 98.1%, the viability, T/C [3] was 109% and the viability, T/C [4] was 95.5%. It also gave a viability, T/C [5] of 57%, a viability, T/C [6] of 65.6% and a viability, T/C [7] of 105%. The viability, T/C [8] was 114%, the viability, T/C [9] was 101% and the viability, T/C [10] was 87.6%. The viability, T/C [11] was 60.5%, the viability, T/C [12] was 69.3% and the viability, T/C [13] was 95.6%. The viability, T/C [14] was 92.5%, the viability, T/C [15] was 93.9% and the viability, T/C [16] was 87.8%. For the same compound, the viability, T/C [17] was 59.7%, the viability, T/C [18] was 52.7% and the viability, T/C [19] was 108%. For the same compound, the viability, T/C [20] was 96.3%, the viability, T/C [21] was 90.3% and the viability, T/C [22] was 70.1%. It also gave a viability, T/C [23] of 48.6%, a viability, T/C [24] of 47.1% and a viability, T/C [25] of 92.2%. The viability, T/C [26] was 77.5%, the viability, T/C [27] was 80.6% and the viability, T/C [28] was 78.2%. The viability, T/C [29] was 45.3% and the viability, T/C [30] was 53.8%.
